This note sets out measurements from patent publication US20240025863A1, “SOS1 PROTEIN DEGRADERS, PHARMACEUTICAL COMPOSITIONS THEREOF, AND THEIR THERAPEUTIC APPLICATIONS” (BioTheryX, Inc., priority 2020, published 2024).

Format in all cases: cell-based
For one assay, the system named is H358 cells (G12C). Briefly: Cell viability assay (CellTiter-Glo), H358 cells. As to conditions: Homo sapiens, NCI-H358, 72 h; H358 cells, 3 days incubation, CellTiter-Glo luminescence; read-out: Inhibition of Cancerous Cells IC50 H358 (G12C). The method, then: (§1) H358, H23, SW48, and AsPC-1 cells were cultured in RPMI 1640 media supplemented with 10% fetal bovine serum, streptomycin, and penicillin. Lovo and SW480 cells were cultured in DMEM media supplemented with 10% fetal bovine serum, streptomycin, and penicillin. The cell lines were plated in their respective medium supplemented with 2.5% fetal bovine serum, streptomycin, and penicillin. All cell lines were plated in white walled 96-well plates at 2,000 cells/well or 384-well plates at 500 cells/well, except Lovo, which were plated at 4,000 or 1,000 cells/well, respectively. The cells were incubated in DMSO (control) or a compound for 3 days at 37° C. under 5% CO2. A CELLTITER-GLO® reagent (100 μL) was then added to each well. After a 10 min incubation with shaking, luminescence was measured using an ENVISION® multimode plate reader.

For another assay, the system named is SW48 cells (wt). The assay is described as follows: Cell viability assay (CellTiter-Glo), SW48 cells. As to conditions: Homo sapiens, 72 h; SW48 cells, 3 days incubation, CellTiter-Glo luminescence; read-out: Inhibition of Cancerous Cells IC50 SW48 (wt). The protocol:
as §1

The test system of a further assay is SW480 cells (G12V). The assay is described as follows: Cell viability assay (CellTiter-Glo), SW480 cells. As to conditions: Homo sapiens, 72 h; SW480 cells, 3 days incubation, CellTiter-Glo luminescence; read-out: Inhibition of Cancerous Cells IC50 SW480 (G12V). The method, then:
as §1

Another assay concerns Lovo cells (G13D). The assay is described as follows: Cell viability assay (CellTiter-Glo), Lovo cells. The note with it: Homo sapiens, 72 h; Lovo cells, 3 days incubation, CellTiter-Glo luminescence; read-out: Inhibition of Cancerous Cells IC50 Lovo (G13D). The method, then:
as §1

On to `CNCc1ccccc1-c1csc([C@H](C)Nc2nc(C)nc3cc(OCCCCCCCN4CCC(c5cc6c(cc5F)C(=O)N(C5CCC(=O)NC5=O)C6)CC4)c(OC)cc23)c1` (stereo partly drawn) [Compound A26, 3-(6-Fluoro-5-(1-(7-((6-methoxy-2-methyl-4-(((S)-1-(4-(2-((methylamino)-methyl)phenyl)thiophen-2-yl)ethyl)amino)quinazolin-7-yl)oxy)heptyl)piperidin-4-yl)-1-oxoisoindolin-2-yl)piperidine-2,6-dione], for which the IC50 was found to be 570 nM in the assay on H358 cells (G12C), 420 nM with SW48 cells (wt), 400 nM in the assay on SW480 cells (G12V) and 360 nM with Lovo cells (G13D).
For the molecule `COc1cc2c(N[C@H](C)c3cccc(C(F)(F)CO)c3)nc(C)nc2cc1OCCCCCCCN1CCC(c2cc3c(cc2F)C(=O)N(C2CCC(=O)NC2=O)C3)CC1` (stereo partly drawn) [Compound A27, 3-(5-(1-(7-((4-(((R)-1-(3-(1,1-Difluoro-2-hydroxyethyl)phenyl)ethyl)amino)-6-methoxy-2-methylquinazolin-7-yl)oxy)heptyl)piperidin-4-yl)-6-fluoro-1-oxoisoindolin-2-yl)-piperidine-2,6-dione], the half-maximal inhibitory concentration (IC50) with H358 cells (G12C) worked out at 1000 nM; in the assay with SW48 cells (wt), 940 nM; in the assay on SW480 cells (G12V), 590 nM; in the assay with Lovo cells (G13D) it was 580 nM.
For `COc1cc2c(N[C@H](C)c3cccc(Br)c3)nc(C)nc2cc1OCCCCCN1CCN(C(=O)COc2cc3c(cc2F)C(=O)N(C2CCC(=O)NC2=O)C3)CC1` (stereo partly drawn) [Compound A31, 3-(5-(2-(4-(5-((4-(((R)-1-(3-Bromophenyl)ethyl)amino)-6-methoxy-2-methyl-quinazolin-7-yl)oxy)pentyl)piperazin-1-yl)-2-oxoethoxy)-6-fluoro-1-oxoisoindolin-2-yl)-piperidine-2,6-dione], the IC50 with H358 cells (G12C) is 4500 nM; with SW48 cells (wt), 510 nM; with SW480 cells (G12V), 4900 nM; in the assay with Lovo cells (G13D), 230 nM.
`COc1cc2c(N[C@H](C)c3cccc(Br)c3)nc(C)nc2cc1OCCCCCCC(=O)N1CCC(CN2CCN(c3cc4c(cc3F)C(=O)N(C3CCC(=O)NC3=O)C4=O)CC2)CC1` (stereo partly drawn) [Compound A33, 5-(4-((1-(7-((4-(((R)-1-(3-Bromophenyl)ethyl)amino)-6-methoxy-2-methyl-quinazolin-7-yl)oxy)heptanoyl)piperidin-4-yl)methyl)piperazin-1-yl)-2-(2,6-dioxopiperidin-3-yl)-6-fluoroisoindoline-1,3-dione]: the IC50 in the assay with H358 cells (G12C) was above 10000 nM; in the assay with SW48 cells (wt) it was 3300 nM; in the assay with SW480 cells (G12V), 570 nM; with Lovo cells (G13D), 180 nM.
For the molecule `COc1cc2c(N[C@H](C)c3cccc(Br)c3)nc(C)nc2cc1OCCCCCCCCC(=O)N1CCC(CN2CCN(c3cc4c(cc3F)C(=O)N(C3CCC(=O)NC3=O)C4=O)CC2)CC1` (stereo partly drawn) [Compound A34, 5-(4-((1-(9-((4-(((R)-1-(3-Bromophenyl)ethyl)amino)-6-methoxy-2-methyl-quinazolin-7-yl)oxy)nonanoyl)piperidin-4-yl)methyl)piperazin-1-yl)-2-(2,6-dioxopiperidin-3-yl)-6-fluoroisoindoline-1,3-dione], the IC50 in the assay with H358 cells (G12C) was above 10000 nM; in the assay on SW48 cells (wt), 3400 nM; in the assay with SW480 cells (G12V) it was 640 nM; in the assay on Lovo cells (G13D) it was 300 nM.
The corresponding values for `COc1cc2c(N[C@H](C)c3cccc(Br)c3)nc(C)nc2cc1OCCCCCCCCCCC(=O)N1CCC(CN2CCN(c3cc4c(cc3F)C(=O)N(C3CCC(=O)NC3=O)C4=O)CC2)CC1` (stereo partly drawn) [Compound A35, 5-(4-((1-(11-((4-(((R)-1-(3-Bromophenyl)ethyl)amino)-6-methoxy-2-methyl-quinazolin-7-yl)oxy)undecanoyl)piperidin-4-yl)methyl)piperazin-1-yl)-2-(2,6-dioxopiperidin-3-yl)-6-fluoroisoindoline-1,3-dione] are above 10000 nM, 4100 nM, 2500 nM and 540 nM.
For `COc1cc2c(N[C@H](C)c3cccc(Br)c3)nc(C)nc2cc1OCCCCCC(=O)NCc1scc2c1CN(C1CCC(=O)NC1=O)C2=O` (stereo partly drawn) [Compound A37, 6-((4-(((R)-1-(3-Bromophenyl)ethyl)amino)-6-methoxy-2-methylquinazolin-7-yl)oxy)-N-((5-(2,6-dioxopiperidin-3-yl)-4-oxo-5,6-dihydro-4H-thieno[3,4-c]pyrrol-1-yl)methyl)-hexanamide], the IC50 with H358 cells (G12C), with SW48 cells (wt), in the assay on SW480 cells (G12V) and in the assay on Lovo cells (G13D) was above 10000 nM in each case.
`COc1cc2c(N[C@H](C)c3cccc(Br)c3)nc(C)nc2cc1OCCCCCCCC(=O)NCc1scc2c1CN(C1CCC(=O)NC1=O)C2=O` (stereo partly drawn) [Compound A38, 8-((4-(((R)-1-(3-Bromophenyl)ethyl)amino)-6-methoxy-2-methylquinazolin-7-yl)oxy)-N-((5-(2,6-dioxopiperidin-3-yl)-4-oxo-5,6-dihydro-4H-thieno[3,4-c]pyrrol-1-yl)methyl)-octanamide]: the IC50 was 6300 nM with H358 cells (G12C), 7900 nM in the assay with SW48 cells (wt), 6400 nM with SW480 cells (G12V) and 6100 nM with Lovo cells (G13D).
With `COc1cc2c(N[C@H](C)c3cccc(Br)c3)nc(C)nc2cc1OCCCCCCCCCC(=O)NCc1scc2c1CN(C1CCC(=O)NC1=O)C2=O` (stereo partly drawn) [Compound A39, 10-((4-(((R)-1-(3-Bromophenyl)ethyl)amino)-6-methoxy-2-methylquinazolin-7-yl)oxy)-N-((5-(2,6-dioxopiperidin-3-yl)-4-oxo-5,6-dihydro-4H-thieno[3,4-c]pyrrol-1-yl)-methyl)decanamide], the IC50 in the assay with H358 cells (G12C) is 680 nM; in the assay on SW48 cells (wt), 210 nM; in the assay with SW480 cells (G12V), 2600 nM; in the assay on Lovo cells (G13D) it was 790 nM.
The like results for `COc1cc2c(N[C@H](C)c3cccc(Br)c3)nc(C)nc2cc1OCCCCCCCCCCCCCCCC(=O)NCc1scc2c1CN(C1CCC(=O)NC1=O)C2=O` (stereo partly drawn) [Compound A49, 16-((4-(((R)-1-(3-Bromophenyl)ethyl)amino)-6-methoxy-2-methylquinazolin-7-yl)oxy)-N-((5-(2,6-dioxopiperidin-3-yl)-4-oxo-5,6-dihydro-4H-thieno[3,4-c]pyrrol-1-yl)methyl)-hexadecanamide] were, in that order, above 10000 nM, 670 nM, 2800 nM and 420 nM.
The like results for `COc1cc2c(N[C@H](C)c3cccc(Br)c3)nc(C)nc2cc1OCCCCCCCCN1CCC(c2cc3c(cc2F)C(=O)N(C2CCC(=O)NC2=O)C3)CC1` (stereo partly drawn) [Compound A50, 3-(5-(1-(8-((4-(((R)-1-(3-Bromophenyl)ethyl)amino)-6-methoxy-2-methyl-quinazolin-7-yl)oxy)octyl)piperidin-4-yl)-6-fluoro-1-oxoisoindolin-2-yl)piperidine-2,6-dione] were, in that order, 960 nM, 790 nM, 470 nM and 430 nM.
As for `COc1cc2c(N[C@H](C)c3cccc(Br)c3)nc(C)nc2cc1OCCCCCCCCCCN1CCC(c2cc(F)cc3c2CN(C2CCC(=O)NC2=O)C3=O)CC1` (stereo partly drawn) [Compound A51, 3-(4-(1-(10-((4-(((R)-1-(3-Bromophenyl)ethyl)amino)-6-methoxy-2-methyl-quinazolin-7-yl)oxy)decyl)piperidin-4-yl)-6-fluoro-1-oxoisoindolin-2-yl)piperidine-2,6-dione], the concentration for half-maximal inhibition (IC50) with H358 cells (G12C) was 390 nM; in the assay on SW48 cells (wt), 290 nM; in the assay on SW480 cells (G12V), 640 nM; in the assay with Lovo cells (G13D) it was 160 nM.
